Columns and labels:
[1] = tested on: 10mer DNA sequence AGAATTGAGT possessing a high-affinity site (-AATT-); test: Electrochemically-determined surface melt curves (solid phase DNA denaturation, cyclic voltammetry of ferrocene-labeled strand); assay type: binding; conditions: 2×10^−6 M netropsin
Excerpt: (B) Shape comparison of solution and surface melting transitions.
In this example, one strand was immobilized while the electroactively-labeled complementary strand was present in solution. Immobilization was realized through a single thiolate (—S—Au) linkage between DNA and the gold electrode support, with mercaptohexanol passivation used to block the remaining surface. (86) Hybridization occurred to the extent governed by thermodynamics under the imposed conditions of temperature and drug concentration. The extent of hybridization was tracked as a function of temperature with cyclic voltammetry, which allows determination of the coverage of double-stranded molecules from the total charge derived from their ferrocene labels. (87-88)
A number of noteworthy conclusions follow from FIG. 5A. The cooling and heating cycles superpose, confirming closeness to equilibrium at the tested scan rate of 0.4° C./min.
This is expected since netropsin prefers to bind to double-stranded DNA. (89) The free energy of binding (i.e. affinity) determined from the surface approach (FIG. 5A) is in reasonable agreement with solution methods. […]

[2] = tested on: MB 5′ Fluorescein-CAATTCCTCT12GAATTG-BHQ1-C7-Amine 3′ with high affinity AATT site in the stem; test: TIRF-imaged melt curves of surface-immobilized molecular beacons (MB microarray); assay type: binding; conditions: 2 μM netropsin, 0.1 M pH 7 phosphate buffer, average of 9 spots
Procedure: The field of view is 4 mm diameter. (B) Melting curves of surface-immobilized MBs without and with 2 μM netropsin in 0.1 M phosphate buffer. […] (C) Melting curves under same conditions as in (B), but for MBs in solution. MBs were assumed closed once data with and without netropsin converged at lower temperatures.
BHQ1 is Black Hole Quencher 1, and the 3′ amine is used for surface immobilization via the stem. Repetition with the same MBs printed on commercial aldehyde microarray slides produced a 4-fold gain with transition observed at a similar temperature, FIG. 2A. […] (56-65) In such studies, opening of the MBs is driven by hybridization at the loop section, as opposed to thermal denaturation as in the data of FIG. 2. Efforts to improve the hybridization-induced gains included optimization of pH and salt composition (60-61, 63), insertion of spacers to distance MBs from the solid support, (63) changes in the chemical nature of the solid support (60-61), and isolation of MBs on the surface down to the single-molecule limit. (62) These approaches, however, have not solved the decreased gain, although effective workarounds have been found for hybridization applications (e.g. use of the solid support itself to provide better quenching (66-70)). Surface-immobilized SPs have also produced approximately 4-fold gains upon hybridization. (64) […]

DNA = conditions: reported for 0.016 M Na+ in ref. 38, corrected to 0.8 M Na+ using ref. 76; cited from earlier work

Cn1cc(NC(=O)c2cc(NC(=O)CN=C(N)N)cn2C)cc1C(=O)NCCC(=N)N [netropsin]
Effect on denaturation transition (electrochemical melt curve) ([1]; 0.5 M pH 7 sodium phosphate buffer, scan rate 0.4° C./min): shifts denaturation to higher temperatures | ΔΔG°25C (increment of ΔG° of melting attributed to the drug; free energy of binding) ([1]; surface approach, 0.5 M pH 7 sodium phosphate buffer (0.8 M Na+), calculated at 25° C. from fitted ΔH° and ΔS°): -8.9 kcal/mol | Effect on melt transition (TM) of surface-immobilized MBs [2]: TM shifting to higher temperatures | ΔΔG°25C based on solution methods (DNA): -9.2 kcal/mol

— patent US20120295805A1, “SOLID PHASE METHODS FOR THE[…] KINETIC QUANTIFICATION OF INTERACTIONS BETWEEN NUCLEIC ACIDS AND SMALL MOLECULES” (priority 2011, published 2012)
